# Assay results reported in patent US11696914B1 (priority 2019, dated 2023).
# Read-outs that look alike come from different tables or passages of the source.
# Experiments:
# [1] = guinea pig, microsomes
# [2] = human, microsomes
# in vitro [3] = details: African green monkey
# [4] = human, microsomes, 1 h, pH 7.4
# HeLa cells = details: human
# [5] = mouse, microsomes, 1 h, pH 7.4
# [6] = system: Ebola virus/H.sapiens-tc/COD/1976/Yambuku-Mayinga (EBOV/May); experiment: microbe, parasite or virus in culture; type: cell-based; details: Zaire ebolavirus, HeLa
# [7] = microsomes
# SARS-CoV-2 = experiment: microbe, parasite or virus in culture; type: cell-based
# [8] = system: murine hepatitis virus (MHV); experiment: microbe, parasite or virus in culture; type: cell-based; details: Murine coronavirus, read-out: IC50 versus murine hepatitis virus (MHV)
# [9] = guinea pig, pH 7.4
# Ebola virus = experiment: microbe, parasite or virus in culture; type: cell-based; details: Zaire ebolavirus, Vero 76
# SARS-CoV-2 Spike RBD = SARS-CoV-2 Spike RBD (Severe acute respiratory syndrome coronavirus 2, UniProt P0DTC2); type: binding
# [10] = system: Venezuelian equine encephalitis virus; experiment: microbe, parasite or virus in culture; type: cell-based; details: Venezuelan equine encephalitis virus, Vero 76
# [11] = system: Marburg virus/H.sapiens-tc/KEN/1980/Mt. Elgon-Musoke (MARV/Mus); experiment: organism not typed; type: cell-based; details: HeLa
# EBOV Zaire = experiment: microbe, parasite or virus in culture; type: cell-based, Ebola virus; details: Zaire ebolavirus, HeLa
# [12] = system: Ebola virus/H.sapiens-tc/GIN/2014/Makona-005 (EBOV/Mak); experiment: microbe, parasite or virus in culture; type: cell-based; details: Zaire ebolavirus, HeLa
# [13] = system: Marburg virus (MARV), Musoke strain; experiment: organism not typed; type: cell-based; details: HeLa; n=6; read-out: IC50 ± SEM versus MARV Musoke strain
# [14] = system: Ebola virus/H.sapiens-tc/COD/1995/Kikwit-9510621 (EBOV/Kik); experiment: microbe, parasite or virus in culture; type: cell-based; details: Zaire ebolavirus, HeLa
# [15] = system: Vesicular Stomatitis Virus (VSV) pseudotyped with EBOV glycoprotein; experiment: microbe, parasite or virus in culture; type: cell-based, Ebola virus; details: HeLa, read-out: IC50, inhibition of EBOV-VSV pseudovirus entry
# in vitro [16] = details: human
# [17] = system: Marburg virus/H.sapiens-tc/AGO/2005/Ang-1379v (MARV/Ang); experiment: organism not typed; type: cell-based; details: HeLa
# Chikungunya virus = experiment: microbe, parasite or virus in culture; type: cell-based; details: Vero 76
# [18] = mouse, microsomes
structure (smiles),measurement,setting,value
CCN(CC)CCCC(C)Nc1c2ccc(Cl)cc2nc2ccc(OC)cc12 (stereo not drawn) [Quinacrine],Clint,[1],81.3
same,"Dextromethorphan: compound, t1/2 normalized to dextromethorphan control",[1],5.4
same,t1/2,[1],17.1 min
same,Clint,[2],50.5
same,"Dextromethorphan: compound, t1/2 normalized to dextromethorphan control",[2],1.4
same,t1/2,[2],27.5 min
same,CC50,in vitro [3],15 µM
same,Relative Peak Area/Abundance HLM,[4],32.3%
same,CC50,HeLa cells,8.62 ± 0.02 µM
same,Relative Peak Area/Abundance MLM,[5],32.0%
same,IC50,[6],1.48 ± 0.65 µM
same,Clint,[7],137.4
same,"Dextromethorphan: compound, t1/2 normalized to dextromethorphan control",[7],1
same,t1/2,[7]; monkey,10.1 min
same,IC50,"SARS-CoV-2; Severe acute respiratory syndrome coronavirus 2, A549-ACE2, read-out: IC50 against SARS-CoV-2",< 0.2 µM
same,IC50,SARS-CoV-2; read-out: IC50 against SARS-CoV-2,~0.122 µM
same,IC50,[8],2.3 µM
same,Relative Peak Area/Abundance GPLM,[9],20.7%
same,EC50,Ebola virus,> 12.3 µM
same,binding to SARS-CoV-2 Spike RBD,SARS-CoV-2 Spike RBD,did not demonstrate reproducible binding
same,EC50,[10],4 µM
same,IC50,[11],1.57 ± 0.17 µM
same,EC50,EBOV Zaire,0.35 µM
same,IC50,[12],1.05 ± 0.26 µM
same,IC50,[13],0.775 ± 0.283 µM
same,IC50,[14],1.41 ± 0.25 µM
same,IC50,[15],0.97 µM
same,CC50,in vitro [16],6.2 µM
same,IC50,[17],2.94 ± 0.76 µM
same,EC50,Chikungunya virus,3.2 µM
same,Clint,[18],110.0
same,"Dextromethorphan: compound, t1/2 normalized to dextromethorphan control",[18],0.8
same,t1/2,[18],12.6 min
